± gives the expanded uncertainty stated by the source.
Assay: xn = mol fraction of the nth substance listed
Conditions: 323.15 K, 100 kPa, Liquid; for electrical conductivity: Alternating current cell with electrodes; for mass density: Vibrating tube method

With `CCCC[N+]1(C)CCCC1.N#CN=C=[N-]` [1-butyl-1-methylpyrrolidinium dicyanamide] + O=C1CCCO1 the electrical conductivity (Frequency=0.005454 MHz, x1 = 0.9013) was 2.633 ± 0.026 S/m, the electrical conductivity (Frequency=0.005454 MHz, x1 = 1) was 2.529 ± 0.025 S/m and the electrical conductivity (Frequency=0.006 MHz, x1 = 0.0463) was 2.01 ± 0.037 S/m. It also gave an electrical conductivity (Frequency=0.006 MHz, x1 = 0.0987) of 3.08 ± 0.039 S/m, an electrical conductivity (Frequency=0.006 MHz, x1 = 0.1449) of 3.57 ± 0.038 S/m and an electrical conductivity (Frequency=0.006 MHz, x1 = 0.1859) of 3.86 ± 0.039 S/m. It also gave an electrical conductivity (Frequency=0.006 MHz, x1 = 0.2493) of 3.89 ± 0.039 S/m, an electrical conductivity (Frequency=0.006 MHz, x1 = 0.3029) of 3.88 ± 0.039 S/m and an electrical conductivity (Frequency=0.006 MHz, x1 = 0.3845) of 3.74 ± 0.038 S/m. It also gave an electrical conductivity (Frequency=0.006 MHz, x1 = 0.4985) of 3.46 ± 0.035 S/m, an electrical conductivity (Frequency=0.006 MHz, x1 = 0.6954) of 2.99 ± 0.03 S/m and an electrical conductivity (Frequency=0.006 MHz, x1 = 0.9013) of 2.633 ± 0.026 S/m. For the same molecule, the electrical conductivity (Frequency=0.006 MHz, x1 = 1) was 2.529 ± 0.025 S/m, the electrical conductivity (Frequency=0.00652174 MHz, x1 = 0.0463) was 2.01 ± 0.037 S/m and the electrical conductivity (Frequency=0.00652174 MHz, x1 = 0.0987) was 3.08 ± 0.039 S/m. For the same molecule, the electrical conductivity (Frequency=0.00652174 MHz, x1 = 0.1449) was 3.57 ± 0.038 S/m, the electrical conductivity (Frequency=0.00652174 MHz, x1 = 0.1859) was 3.86 ± 0.039 S/m and the electrical conductivity (Frequency=0.00652174 MHz, x1 = 0.2493) was 3.9 ± 0.039 S/m. It also gave an electrical conductivity (Frequency=0.00652174 MHz, x1 = 0.3029) of 3.88 ± 0.039 S/m, an electrical conductivity (Frequency=0.00652174 MHz, x1 = 0.3845) of 3.74 ± 0.038 S/m and an electrical conductivity (Frequency=0.00652174 MHz, x1 = 0.4985) of 3.46 ± 0.035 S/m. The electrical conductivity (Frequency=0.00652174 MHz, x1 = 0.6954) was 2.99 ± 0.03 S/m, the electrical conductivity (Frequency=0.00652174 MHz, x1 = 0.9013) was 2.63 ± 0.027 S/m and the electrical conductivity (Frequency=0.00652174 MHz, x1 = 1) was 2.529 ± 0.025 S/m. It also gave an electrical conductivity (Frequency=0.00694444 MHz, x1 = 0.0463) of 2.01 ± 0.037 S/m, an electrical conductivity (Frequency=0.00694444 MHz, x1 = 0.0987) of 3.08 ± 0.039 S/m and an electrical conductivity (Frequency=0.00694444 MHz, x1 = 0.1449) of 3.57 ± 0.038 S/m. For the same molecule, the electrical conductivity (Frequency=0.00694444 MHz, x1 = 0.1859) was 3.86 ± 0.039 S/m, the electrical conductivity (Frequency=0.00694444 MHz, x1 = 0.2493) was 3.9 ± 0.039 S/m and the electrical conductivity (Frequency=0.00694444 MHz, x1 = 0.3029) was 3.88 ± 0.039 S/m. For the same molecule, the electrical conductivity (Frequency=0.00694444 MHz, x1 = 0.3845) was 3.74 ± 0.038 S/m, the electrical conductivity (Frequency=0.00694444 MHz, x1 = 0.4985) was 3.46 ± 0.035 S/m and the electrical conductivity (Frequency=0.00694444 MHz, x1 = 0.6954) was 2.99 ± 0.03 S/m. It also gave an electrical conductivity (Frequency=0.00694444 MHz, x1 = 0.9013) of 2.63 ± 0.027 S/m, an electrical conductivity (Frequency=0.00694444 MHz, x1 = 1) of 2.529 ± 0.025 S/m and an electrical conductivity (Frequency=0.0075 MHz, x1 = 0.0463) of 2.01 ± 0.037 S/m. For the same molecule, the electrical conductivity (Frequency=0.0075 MHz, x1 = 0.0987) was 3.08 ± 0.039 S/m, the electrical conductivity (Frequency=0.0075 MHz, x1 = 0.1449) was 3.57 ± 0.038 S/m and the electrical conductivity (Frequency=0.0075 MHz, x1 = 0.1859) was 3.86 ± 0.039 S/m. The electrical conductivity (Frequency=0.0075 MHz, x1 = 0.2493) was 3.9 ± 0.039 S/m, the electrical conductivity (Frequency=0.0075 MHz, x1 = 0.3029) was 3.88 ± 0.039 S/m and the electrical conductivity (Frequency=0.0075 MHz, x1 = 0.3845) was 3.74 ± 0.038 S/m. The electrical conductivity (Frequency=0.0075 MHz, x1 = 0.4985) was 3.46 ± 0.035 S/m, the electrical conductivity (Frequency=0.0075 MHz, x1 = 0.6954) was 2.99 ± 0.03 S/m and the electrical conductivity (Frequency=0.0075 MHz, x1 = 0.9013) was 2.63 ± 0.027 S/m. It also gave an electrical conductivity (Frequency=0.0075 MHz, x1 = 1) of 2.529 ± 0.025 S/m, an electrical conductivity (Frequency=0.008 MHz, x1 = 0.0463) of 2.01 ± 0.037 S/m and an electrical conductivity (Frequency=0.008 MHz, x1 = 0.0987) of 3.08 ± 0.039 S/m. It also gave an electrical conductivity (Frequency=0.008 MHz, x1 = 0.1449) of 3.57 ± 0.038 S/m, an electrical conductivity (Frequency=0.008 MHz, x1 = 0.1859) of 3.86 ± 0.039 S/m and an electrical conductivity (Frequency=0.008 MHz, x1 = 0.2493) of 3.9 ± 0.039 S/m. For the same molecule, the electrical conductivity (Frequency=0.008 MHz, x1 = 0.3029) was 3.88 ± 0.039 S/m, the electrical conductivity (Frequency=0.008 MHz, x1 = 0.3845) was 3.74 ± 0.038 S/m and the electrical conductivity (Frequency=0.008 MHz, x1 = 0.4985) was 3.46 ± 0.035 S/m. It also gave an electrical conductivity (Frequency=0.008 MHz, x1 = 0.6954) of 2.99 ± 0.03 S/m, an electrical conductivity (Frequency=0.008 MHz, x1 = 0.9013) of 2.63 ± 0.027 S/m and an electrical conductivity (Frequency=0.008 MHz, x1 = 1) of 2.529 ± 0.025 S/m. For the same molecule, the electrical conductivity (Frequency=0.00857143 MHz, x1 = 0.0463) was 2.01 ± 0.037 S/m, the electrical conductivity (Frequency=0.00857143 MHz, x1 = 0.0987) was 3.08 ± 0.039 S/m and the electrical conductivity (Frequency=0.00857143 MHz, x1 = 0.1449) was 3.57 ± 0.038 S/m. The electrical conductivity (Frequency=0.00857143 MHz, x1 = 0.1859) was 3.86 ± 0.039 S/m, the electrical conductivity (Frequency=0.00857143 MHz, x1 = 0.2493) was 3.9 ± 0.039 S/m and the electrical conductivity (Frequency=0.00857143 MHz, x1 = 0.3029) was 3.88 ± 0.039 S/m. The electrical conductivity (Frequency=0.00857143 MHz, x1 = 0.3845) was 3.74 ± 0.038 S/m, the electrical conductivity (Frequency=0.00857143 MHz, x1 = 0.4985) was 3.46 ± 0.035 S/m and the electrical conductivity (Frequency=0.00857143 MHz, x1 = 0.6954) was 2.99 ± 0.03 S/m. The electrical conductivity (Frequency=0.00857143 MHz, x1 = 0.9013) was 2.63 ± 0.027 S/m, the electrical conductivity (Frequency=0.00857143 MHz, x1 = 1) was 2.529 ± 0.025 S/m and the electrical conductivity (Frequency=0.00892857 MHz, x1 = 0.0463) was 2.01 ± 0.037 S/m. For the same molecule, the electrical conductivity (Frequency=0.00892857 MHz, x1 = 0.0987) was 3.08 ± 0.039 S/m, the electrical conductivity (Frequency=0.00892857 MHz, x1 = 0.1449) was 3.57 ± 0.038 S/m and the electrical conductivity (Frequency=0.00892857 MHz, x1 = 0.1859) was 3.86 ± 0.039 S/m. It also gave an electrical conductivity (Frequency=0.00892857 MHz, x1 = 0.2493) of 3.9 ± 0.039 S/m, an electrical conductivity (Frequency=0.00892857 MHz, x1 = 0.3029) of 3.88 ± 0.039 S/m and an electrical conductivity (Frequency=0.00892857 MHz, x1 = 0.3845) of 3.74 ± 0.038 S/m. The electrical conductivity (Frequency=0.00892857 MHz, x1 = 0.4985) was 3.46 ± 0.035 S/m, the electrical conductivity (Frequency=0.00892857 MHz, x1 = 0.6954) was 2.99 ± 0.03 S/m and the electrical conductivity (Frequency=0.00892857 MHz, x1 = 0.9013) was 2.63 ± 0.027 S/m. The electrical conductivity (Frequency=0.00892857 MHz, x1 = 1) was 2.529 ± 0.025 S/m, the electrical conductivity (Frequency=0.00961538 MHz, x1 = 0.0463) was 2.01 ± 0.037 S/m and the electrical conductivity (Frequency=0.00961538 MHz, x1 = 0.0987) was 3.08 ± 0.039 S/m. The electrical conductivity (Frequency=0.00961538 MHz, x1 = 0.1449) was 3.57 ± 0.038 S/m, the electrical conductivity (Frequency=0.00961538 MHz, x1 = 0.1859) was 3.86 ± 0.039 S/m and the electrical conductivity (Frequency=0.00961538 MHz, x1 = 0.2493) was 3.9 ± 0.039 S/m. It also gave an electrical conductivity (Frequency=0.00961538 MHz, x1 = 0.3029) of 3.88 ± 0.039 S/m, an electrical conductivity (Frequency=0.00961538 MHz, x1 = 0.3845) of 3.74 ± 0.038 S/m and an electrical conductivity (Frequency=0.00961538 MHz, x1 = 0.4985) of 3.46 ± 0.035 S/m. The electrical conductivity (Frequency=0.00961538 MHz, x1 = 0.6954) was 3 ± 0.03 S/m, the electrical conductivity (Frequency=0.00961538 MHz, x1 = 0.9013) was 2.63 ± 0.027 S/m and the electrical conductivity (Frequency=0.00961538 MHz, x1 = 1) was 2.529 ± 0.025 S/m. The electrical conductivity (Frequency=0.01 MHz, x1 = 0.0463) was 2.01 ± 0.037 S/m, the electrical conductivity (Frequency=0.01 MHz, x1 = 0.0987) was 3.08 ± 0.039 S/m and the electrical conductivity (Frequency=0.01 MHz, x1 = 0.1449) was 3.57 ± 0.038 S/m. The electrical conductivity (Frequency=0.01 MHz, x1 = 0.1859) was 3.86 ± 0.039 S/m, the electrical conductivity (Frequency=0.01 MHz, x1 = 0.2493) was 3.9 ± 0.039 S/m and the electrical conductivity (Frequency=0.01 MHz, x1 = 0.3029) was 3.88 ± 0.039 S/m. It also gave an electrical conductivity (Frequency=0.01 MHz, x1 = 0.3845) of 3.74 ± 0.038 S/m, an electrical conductivity (Frequency=0.01 MHz, x1 = 0.4985) of 3.46 ± 0.035 S/m and an electrical conductivity (Frequency=0.01 MHz, x1 = 0.6954) of 3 ± 0.03 S/m. It also gave an electrical conductivity (Frequency=0.01 MHz, x1 = 0.9013) of 2.63 ± 0.027 S/m, an electrical conductivity (Frequency=0.01 MHz, x1 = 1) of 2.529 ± 0.025 S/m and a mass density (x1 = 0.0987) of 1082.02 ± 8.7 kg/m3. The mass density (x1 = 0.1859) was 1067.9 ± 8.6 kg/m3, the mass density (x1 = 0.3029) was 1051.93 ± 8.4 kg/m3 and the mass density (x1 = 0.4985) was 1031.43 ± 8.3 kg/m3. For the same molecule, the mass density (x1 = 0.6954) was 1016.21 ± 8.2 kg/m3, the mass density (x1 = 0.9013) was 1004.23 ± 8.1 kg/m3 and the mass density (x1 = 1) was 999.525 ± 8 kg/m3.

Source: the NIST ThermoML archive (doi:10.1016/j.jct.2015.08.014)
